Reference: patent publication US9796777B2, “Methods of treating malignant tumors” (Canimguide Therapeutics AB, priority 2007, dated 2017)

What was measured:
[1] = system: cell surface receptors of immune cells (ACS); experiment: Adsorption of enzyme fragmented dHSA on affinity column with biotinylated cell surface proteins (ACS), MALDI-TOF ms; format: binding, human
Protocol: Based on the observation that immunoregulatory peptide sequences are present in serum albumin, there is the possibility that other sequences than the epitope of mAb A have immunoregulatory function. Therefore an artificial cell surface (ACS) was prepared as described in materials and methods. […]
To remove unfragmented albumin and enzyme, the sample was ultra filtered through an Amicon Ultra 4 (mw cut-off of 5000) or a Centriplus (mw cut-off 10000) centrifugal filter (Millipore AB, Solna, Sweden). The filtrate, containing fragmented dHSA without enzymes, was collected and diluted with PBS with Ca and Mg (GIBCO).
Buffy coats generated from 450 ml blood each was collected from 4 healthy donors. Erythrocytes were removed by sedimentation on 2% dextran T500 solution (Amersham Pharmacia Biotech AB, Uppsala Sweden) in 0.9% NaCl. Mononuclear cells (PBMC) were then isolated by Ficoll-Paque Plus (GE Healthcare Bioscience AB Sweden) density gradient centrifugation. The PBMC were then suspended in phosphate buffered saline (PBS) containing Ca and Mg (GIBCO) at a concentration of 10×10^6/ml. EZ Link Sulfo-NHS-biotin (Pierce USA) was added at a final concentration of 0.2 mg/ml and the mixture incubated on a shaker at room temperature for 10 min. Excess biotin was then removed by washing the PBMC in PBS. Biotinylated PBMC were then lysed by adding 1.0 ml ice-cold lysing buffer (50 mM Tris-HCL, pH 7.5, with 0.15 M NaCl, 5 mM MgCl2 containing 100 mM Octyl glucoside and 1 mM Phenylmethylsulfonyl fluoride) per 2×10^7 pelleted cells with gentle shaking, then incubated for 30 min. on ice. Debris was removed by centrifugation at 5000×g at 4° C. for 10 min and the supernatants was collected and pooled from all four donors. The lysate was then stored at −70° C. in polypropylene plastic tubes.
This amount of lysate corresponds to 36×10^7 mononuclear cells. It was added to a 1 ml Hitrap Streptavidin HP affinity column (Amersham Biosciences). To block possible remaining free biotin, 5 ml of 0.1 M glycine (Sigma) was added to the column. Unsaturated streptavidin on the column was then reacted with 150 ug biotin (Sigma) in binding buffer. The column was carefully washed with PBS and stored in PBS with 0.1% NaN3 at 4° C. until use.
27 ml biotinylated cell lysate in binding buffer (corresponding to 54×10^7 mononuclear cells) was added to 1.5 ml washed Streptavidin Sepharose HP (Amersham Biosciences). To block possible remaining free biotin, 25 ml of 0.1 M glycine (Sigma) was added to the Streptavidin Sepharose. Unsaturated streptavidin was then reacted with 225 μg biotin (Sigma) in binding buffer. The Streptavidin Sepharose was carefully washed in PBS. One ml of the biotinylated cell lysate coupled Streptavidin Sepharose was then packed in an empty column (Tricorn Empty High Performance Column, Amersham Bioscience) and washed with phosphate buffered saline (PBS) containing Ca and Mg (GIBCO).
The flow-through was collected with consideration taken to void volume and dilution of adsorbed sample by collecting in small portions of 0.2 ml. Thirty ul of each sample, including a control sample that has not been adsorbed, were dried in a Speed-Vac centrifuge.
Dried samples were reconstituted in 10 ul of 0.1% TFA. Zip Tip pipette tips (Millipore, USA) containing C18 reversed-phase media were used for desalting reconstituted samples. […] For the analysis of samples in the mass range 1500-9000 Da, one μl of each Zip Tip eluted sample was mixed with 1 μl of sinapinic acid ([…]). […] Mass identity search of resulting spectra was performed in the SwissProt or NCBI databases using MS-Fit.

[2] = system: natural killer (NK) cells; experiment: Cytotoxic activity of natural killer (NK) cells against K562 (NKTEST, flow cytometry); format: cell-based, human; details: four healthy donors; peptides 10 ug/ml; effector:target ratio 40:1
Protocol: Mononuclear cells were separated by standard Ficoll-paque Plus (Pharmacia AB, Sweden) density gradient centrifugation from heparinized blood obtained from healthy donors. NK cell cytotoxic activity of the mononuclear cells was then tested using a commercial kit (NKTEST, Orpegen Pharma GmbH, Heidelberg, Germany) following the manufacturers protocol. Briefly, the kit contains cryopreserved, NK-sensitive target cells (K562) labelled with a lipophilic green fluorescent membrane dye, which enables discrimination of effector and target cells. After incubation with effector cells, killed target cells are identified by a DNA-stain, which penetrates and specifically stain the nuclei of dead target cells. This way the percentage of killed targets can be determined by flow cytometry. The mononuclear cells were pre-incubated for 30 min at 37° C. with the indicated peptides (peptides have been described previously) at 10 ug/ml. Target cells were then added, giving an effector:target ratio of 40:1, and the cell mixture incubated at 37° C. for 3-4 hours. Samples were analysed on a FACSCalibur (BD Biosciences, San Jose, Calif.).

VFDEFKPLVEEPQNLIK [peptide 3028]
Per cent adsorbed ([1]; Table 5 A, peptides generated by trypsin degradation of dHSA): 0.60 Per cent
Per cent adsorbed ([1]; Table 5 B, trypsin peptides selected for synthesis): 0.60 Per cent
effect on percent specific lysis of K562 target cells [2]: reduced the percent specific lysis of K562 target cells by all four donors
